{
  "source": "patent US10806164B2",
  "about": "(priority 2016, dated 2020)",
  "key": {"[1]": {"conditions": "rat, in vivo"}, "[2]": {"conditions": "rat, in vivo", "remark": "listed apart in the source"}},
  "note": "Marks after values point to notes of the source that are not given here.",
  "data": [
    {"substance": "Deoxynivalenol [DON]", "values": [
      {"measurement": "Consumption food Means ± Standard error", "setting": "[1]", "result": "511 ± 5.71 ^b"},
      {"measurement": "Effect on consumption of food", "setting": "[2]", "result": "affected the consumption of food"},
      {"measurement": "Food consumption Means ± standard error", "setting": "[2]", "result": "569 ± 19.1 ^b"},
      {"measurement": "Food consumption from 0 to 7 days", "setting": "[2]", "result": "98 ± 4.75 ^a"},
      {"measurement": "Food consumption from 7 to 14 days", "setting": "[2]", "result": "109 ± 4.84 ^a"},
      {"measurement": "Food consumption from 14 to 21 days", "setting": "[2]", "result": "109 ± 5.41 ^b"},
      {"measurement": "Food consumption from 21 to 28 days", "setting": "[2]", "result": "121 ± 4.83 ^b"},
      {"measurement": "Food consumption from 28 to 35 days", "setting": "[2]", "result": "132 ± 3.10 ^b"},
      {"measurement": "Food conversion Means ± standard error", "setting": "[2]", "result": "5.22 ± 0.195 ^b"},
      {"measurement": "Gain of weight from 0 to 7 days", "setting": "[2]", "result": "24 ± 2.45 ^b"},
      {"measurement": "Gain of weight from 7 to 14 days", "setting": "[2]", "result": "24 ± 3.04 ^a"},
      {"measurement": "Gain of weight from 14 to 21 days", "setting": "[2]", "result": "21 ± 2.92 ^a"},
      {"measurement": "Gain of weight from 21 to 28 days", "setting": "[2]", "result": "13 ± 3.89 ^b"},
      {"measurement": "Gain of weight from 28 to 35 days", "setting": "[2]", "result": "27 ± 3.63 ^a"},
      {"measurement": "Weight gain Means ± standard error", "setting": "[2]", "result": "109 ± 6.61 ^b g"}
    ]}
  ]
}
